Consider 19 molecules from patent publication US9458198B1, “Cyclic peptide-based NPR-B agonists” (priority 2009, dated 2016).

pEC50: −log10 of the molar value. Where a SMILES comes first, the peptide text is derived from it. Bridges are numbered along the chain shown (N, C = ends). [ ]: non-standard residue; d: D form. The star is where a group is joined. Hexanoyl = CCCCCC(=O)* Bounds are passed on as bounds.

In general, pEC50 refers to the EC50 on a negative log10 scale, so that one unit is a factor of ten.

One assay addresses T1, NPR-B (Homo sapiens, UniProt P20594).
T1 construct: a functional assay using endogenously NPR-B expressing GTM-3 cells; endogenous in cells; host or cells: GTM-3 (transformed human trabecular meshwork cells)
T1 sequence (P20594 23-1047): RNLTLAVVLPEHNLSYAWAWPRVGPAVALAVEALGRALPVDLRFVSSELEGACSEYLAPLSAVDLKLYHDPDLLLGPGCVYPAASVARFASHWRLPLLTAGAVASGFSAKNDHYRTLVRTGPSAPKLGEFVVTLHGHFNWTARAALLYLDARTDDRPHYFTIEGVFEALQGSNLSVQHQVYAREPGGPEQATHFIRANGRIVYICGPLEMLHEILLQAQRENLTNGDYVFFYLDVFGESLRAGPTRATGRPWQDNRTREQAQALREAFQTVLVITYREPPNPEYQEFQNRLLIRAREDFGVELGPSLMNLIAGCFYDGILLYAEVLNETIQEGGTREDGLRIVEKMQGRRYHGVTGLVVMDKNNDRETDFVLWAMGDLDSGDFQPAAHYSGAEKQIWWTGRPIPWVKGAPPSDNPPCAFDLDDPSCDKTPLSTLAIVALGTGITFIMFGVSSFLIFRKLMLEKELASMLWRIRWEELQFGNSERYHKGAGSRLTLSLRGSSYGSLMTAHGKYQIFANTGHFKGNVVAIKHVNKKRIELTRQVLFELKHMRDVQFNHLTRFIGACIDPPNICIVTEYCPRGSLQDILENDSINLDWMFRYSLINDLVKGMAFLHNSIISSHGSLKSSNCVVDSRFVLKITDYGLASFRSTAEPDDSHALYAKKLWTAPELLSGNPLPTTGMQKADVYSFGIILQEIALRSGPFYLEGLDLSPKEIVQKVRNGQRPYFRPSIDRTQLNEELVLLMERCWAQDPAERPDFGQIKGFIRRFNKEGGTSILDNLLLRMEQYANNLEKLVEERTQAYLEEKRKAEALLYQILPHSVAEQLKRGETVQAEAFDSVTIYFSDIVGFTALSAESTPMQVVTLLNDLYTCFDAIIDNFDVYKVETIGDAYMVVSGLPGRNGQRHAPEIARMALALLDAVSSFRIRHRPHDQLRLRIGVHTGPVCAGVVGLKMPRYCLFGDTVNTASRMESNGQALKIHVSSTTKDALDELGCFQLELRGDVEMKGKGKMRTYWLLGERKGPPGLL
Nature of the assay: NPR-B induced production of cyclic GMP in GTM-3 cells. Type of assay: cell-based. The note with it: Activity (group): NPR-B activation, EC50 and Emax (CNP = 100%). On the procedure: The efficacy and potency of compounds to activate NPR-B were evaluated in a functional assay using endogenously NPR-B expressing GTM-3 cells (Pang et al. 1994, Curr Eye Res 13:51-63). In this assay the dose dependent production of cyclic GMP (cGMP) is determined and Emax (maximum activation) and EC50 values are calculated.
The cell culture medium is aspirated and each well is washed with 200 μl DMEM/Ham's F12=Medium (Gibco). Then, 200 μl Medium supplemented with 1 mM IBMX (3-Isobutyl-1-methyl-xanthin, Sigma) is added to each well and incubated for 15 min. at room temperature.
Final compound concentrations are in the range from 45 μM to 20 nM.
In the case of `CCC(=O)N[C@H]1CSSC[C@@H](C(N)=O)NC(=O)[C@H](CO)NC(=O)[C@H]([C@@H](C)CC)NC(=O)[C@H](CCCNC(=N)N)NC(=O)[C@H](CC(=O)O)NC(=O)[C@H](CC(C)C)NC(=O)[C@H](CCCCN)NC(=O)[C@H](CC(C)C)NC(=O)CNC(=O)[C@H](Cc2ccccc2)NC(=O)[C@@H](C)NC1=O` [compound 62], the pEC50 was above 5.30.

Take `CC[C@H](C)[C@@H]1NC(=O)[C@H](CCCNC(=N)N)NC(=O)[C@H](CC(=O)O)NC(=O)[C@H](CC(C)C)NC(=O)[C@H](CCCCN)NC(=O)[C@H](CC(C)C)NC(=O)CNC(=O)[C@H](Cc2ccccc2)NC(=O)[C@@H](C)NC(=O)[C@@H](NC(=O)CC(C)C)CSSC[C@@H](C(N)=O)NC(=O)[C@H](CO)NC1=O` [compound 63]: the pEC50 is above 5.30. The same measure, in the same setting: with `CC[C@H](C)[C@@H]1NC(=O)[C@H](CCCNC(=N)N)NC(=O)[C@H](CC(=O)O)NC(=O)[C@H](CC(C)C)NC(=O)[C@H](CCCCN)NC(=O)[C@H](CC(C)C)NC(=O)CNC(=O)[C@H](Cc2ccccc2)NC(=O)[C@@H](C)NC(=O)[C@@H](NC(=O)CCC(C)C)CSSC[C@@H](C(N)=O)NC(=O)[C@H](CO)NC1=O` [compound 64] the figure was above 6.00; with `CCCCCC(=O)N[C@H]1CSSC[C@@H](C(N)=O)NC(=O)[C@H](CO)NC(=O)[C@H]([C@@H](C)CC)NC(=O)[C@H](CCCNC(=N)N)NC(=O)[C@H](CC(=O)O)NC(=O)[C@H](CC(C)C)NC(=O)[C@H](CCCCN)NC(=O)[C@H](CC(C)C)NC(=O)CNC(=O)[C@H](Cc2ccccc2)NC(=O)[C@@H](C)NC1=O` [compound 65], above 6.00.

For the molecule `CC[C@H](C)[C@@H]1NC(=O)[C@H](CCCNC(=N)N)NC(=O)[C@H](CC(=O)O)NC(=O)[C@H](CC(C)C)NC(=O)[C@H](CCCCN)NC(=O)[C@H](CC(C)C)NC(=O)CNC(=O)[C@H](Cc2ccccc2)NC(=O)[C@@H](C)NC(=O)[C@@H](NC(=O)CCCC(C)C)CSSC[C@@H](C(N)=O)NC(=O)[C@H](CO)NC1=O` [compound 67], the pEC50 is above 6.00.

Regarding `CCCCCCCC(=O)N[C@H]1CSSC[C@@H](C(N)=O)NC(=O)[C@H](CO)NC(=O)[C@H]([C@@H](C)CC)NC(=O)[C@H](CCCNC(=N)N)NC(=O)[C@H](CC(=O)O)NC(=O)[C@H](CC(C)C)NC(=O)[C@H](CCCCN)NC(=O)[C@H](CC(C)C)NC(=O)CNC(=O)[C@H](Cc2ccccc2)NC(=O)[C@@H](C)NC1=O` [compound 68], the pEC50 was above 6.00. The same measure, in the same setting: with `CC[C@H](C)[C@@H]1NC(=O)[C@H](CCCNC(=N)N)NC(=O)[C@H](CC(=O)O)NC(=O)[C@H](CC(C)C)NC(=O)[C@H](CCCCN)NC(=O)[C@H](CC(C)C)NC(=O)CNC(=O)[C@H](Cc2ccccc2)NC(=O)[C@@H](C)NC(=O)[C@@H](NC(=O)CCc2ccccc2)CSSC[C@@H](C(N)=O)NC(=O)[C@H](CO)NC1=O` [compound 70] the figure was above 6.00. The molecule `CC[C@H](C)[C@@H]1NC(=O)[C@H](CCCNC(=N)N)NC(=O)[C@H](CC(=O)O)NC(=O)[C@H](CC(C)C)NC(=O)[C@H](CCCCN)NC(=O)[C@H](CC(C)C)NC(=O)CNC(=O)[C@H](Cc2ccccc2)NC(=O)[C@@H](C)NC(=O)[C@@H](NC(=O)CCCc2ccccc2)CSSC[C@@H](C(N)=O)NC(=O)[C@H](CO)NC1=O` [compound 72] showed a pEC50 above 6.00.

Still in this assay, the particulars now being: Activity (group): NPR-B activation, EC50 and Emax (CNP = 100%), GTM-3 cells; group needs both EC50 and Emax criteria, checked A then B then C.
`CC[C@H](C)[C@@H]1NC(=O)[C@H](CCCNC(=N)N)NC(=O)[C@H](CC(=O)O)NC(=O)[C@H](CC(C)C)NC(=O)[C@@H]2CCCN2C(=O)[C@H](CC(C)C)NC(=O)CNC(=O)[C@H](Cc2ccccc2)NC(=O)[C@@H](C)NC(=O)[C@@H](NC(=O)[C@@H](N)CCSC)CSSC[C@@H](C(N)=O)NC(=O)[C@H](CO)NC1=O` [compound 49] gave a pEC50 above 6.00. For the molecule `CC[C@H](C)[C@@H]1NC(=O)[C@H](CCCNC(=N)N)NC(=O)[C@H](CC(=O)O)NC(=O)[C@H](CC(C)C)NC(=O)[C@H](CCCCN)NC(=O)[C@H](CC(C)C)NC(=O)CNC(=O)[C@H](Cc2ccccc2)NC(=O)[C@@H](C)NC(=O)[C@@H](NC(=O)c2ccccc2)CSSC[C@@H](C(N)=O)NC(=O)[C@H](CO)NC1=O` [compound 66], the negative-log EC50 (pEC50) was above 5.30. The same measure, in the same setting: in the case of `CC[C@H](C)[C@@H]1NC(=O)[C@H](CCCNC(=N)N)NC(=O)[C@H](CC(=O)O)NC(=O)[C@H](CC(C)C)NC(=O)[C@H](CCCCN)NC(=O)[C@H](CC(C)C)NC(=O)CNC(=O)[C@H](Cc2ccccc2)NC(=O)[C@@H](C)NC(=O)[C@@H](NC(=O)Cc2ccccc2)CSSC[C@@H](C(N)=O)NC(=O)[C@H](CO)NC1=O` [compound 69] it was above 5.30; in that of `CC[C@H](C)[C@@H]1NC(=O)[C@H](CCCNC(=N)N)NC(=O)[C@H](CC(=O)O)NC(=O)[C@H](CC(C)C)NC(=O)[C@H](CCCCN)NC(=O)[C@H](CC(C)C)NC(=O)CNC(=O)[C@H](Cc2ccccc2)NC(=O)[C@@H](C)NC(=O)[C@@H](N)CSSC[C@@H](C(N)=O)NC(=O)[C@H](CO)NC1=O` [compound 73], above 4.82.

The assay is the same for the next values; noted with them: GTM-3 cells; group needs both EC50 and Emax criteria, checked A then B then C; read-out: Activity (group): NPR-B activation, EC50 and Emax (CNP = 100%).
`CC[C@H](C)[C@@H]1NC(=O)[C@H](CCCNC(=N)N)NC(=O)[C@H](CC(=O)O)NC(=O)[C@H](CC(C)C)NC(=O)[C@H](CCCCN)NC(=O)[C@H](CC(C)C)NC(=O)CNC(=O)[C@H](Cc2ccccc2)NC(=O)[C@@H](Cc2ccccc2)NC(=O)[C@@H](NC(=O)[C@@H](N)CCSC)CSSC[C@@H](C(N)=O)NC(=O)[C@H](CO)NC1=O` [compound 45]: the pEC50 is above 4.82. Same read-out and setting: in the case of `CC[C@H](C)[C@@H]1NC(=O)[C@H](CCCNC(=N)N)NC(=O)[C@H](CC(=O)O)NC(=O)[C@H]([C@@H](C)CC)NC(=O)[C@H](CCCCN)NC(=O)[C@H](CC(C)C)NC(=O)CNC(=O)[C@H](Cc2ccccc2)NC(=O)[C@@H](C)NC(=O)[C@@H](NC(=O)[C@@H](N)CCSC)CSSC[C@@H](C(N)=O)NC(=O)[C@H](CO)NC1=O` [compound 53] (H-MC[dA]FGLKIDRISC-NH2; disulfide 2-13) it was above 6.00. Still for that read-out and setting: with `CC[C@H](C)[C@@H]1NC(=O)[C@H](CCCNC(=N)N)NC(=O)[C@H](CC(=O)O)NC(=O)[C@H](C(C)C)NC(=O)[C@H](CCCCN)NC(=O)[C@H](CC(C)C)NC(=O)CNC(=O)[C@H](Cc2ccccc2)NC(=O)[C@@H](C)NC(=O)[C@@H](NC(=O)[C@@H](N)CCSC)CSSC[C@@H](C(N)=O)NC(=O)[C@H](CO)NC1=O` [compound 54] (H-MC[dA]FGLKVDRISC-NH2; disulfide 2-13) the figure was above 5.30.

Turning to `CSCC[C@H](N)C(=O)N[C@H]1CSSC[C@@H](C(N)=O)NC(=O)[C@H](CO)NC(=O)[C@H](CC(C)C)NC(=O)[C@H](CCCNC(=N)N)NC(=O)[C@H](CC(=O)O)NC(=O)[C@H](CC(C)C)NC(=O)[C@H](CCCCN)NC(=O)[C@H](CC(C)C)NC(=O)CNC(=O)[C@H](Cc2ccccc2)NC(=O)[C@@H](C)NC1=O` [compound 56] (H-MC[dA]FGLKLDRLSC-NH2; disulfide 2-13), the pEC50 was above 5.30. Still for that read-out and setting: with `CSCC[C@H](N)C(=O)N[C@H]1CSSC[C@@H](C(N)=O)NC(=O)[C@H](CO)NC(=O)[C@H](C(C)C)NC(=O)[C@H](CCCNC(=N)N)NC(=O)[C@H](CC(=O)O)NC(=O)[C@H](CC(C)C)NC(=O)[C@H](CCCCN)NC(=O)[C@H](CC(C)C)NC(=O)CNC(=O)[C@H](Cc2ccccc2)NC(=O)[C@@H](C)NC1=O` [compound 57] (H-MC[dA]FGLKLDRVSC-NH2; disulfide 2-13) the figure was above 5.30; with `CCCCS(=O)(=O)N[C@H]1CSSC[C@@H](C(N)=O)NC(=O)[C@H](CO)NC(=O)[C@H]([C@@H](C)CC)NC(=O)[C@H](CCCNC(=N)N)NC(=O)[C@H](CC(=O)O)NC(=O)[C@H](CC(C)C)NC(=O)[C@H](CCCCN)NC(=O)[C@H](CC(C)C)NC(=O)CNC(=O)[C@H](Cc2ccccc2)NC(=O)[C@@H](C)NC1=O` [compound 71], above 5.30; with `CCCCCC(=O)N[C@H]1CSSC[C@@H](C(N)=O)NC(=O)[C@H](CO)NC(=O)[C@H]([C@@H](C)CC)NC(=O)[C@H](CCCNC(=N)N)NC(=O)[C@H](CC(=O)O)NC(=O)[C@H]([C@@H](C)CC)NC(=O)[C@H](CCCCN)NC(=O)[C@H](CC(C)C)NC(=O)CNC(=O)[C@H](Cc2ccccc2)NC(=O)[C@@H](C)NC1=O` [compound 87] (Hexanoyl-C[dA]FGLKIDRISC-NH2; disulfide 1-12), above 6.00.
